# pIC50: −log10 of the molar value.
# Test system: cancer cell lines
# Assay: Multiplexed cytotoxicity assay: cell proliferation (relative cell count IC50, GI50)
# Format: cell-based
# Conditions: Homo sapiens
# Procedure: (§1) Cells are grown in RPMI1640, 10% FBS, 2 mM L-alanyl-L-Glutamine, 1 mM Na pyruvate or a special medium in a humidified atmosphere of 5% CO2 at 37° C. Cells are seeded into 384-well plates and incubated in a humidified atmosphere of 5% CO2 at 37° C. Compounds are added 24 h post cell seeding. At the same time, a time zero untreated cell plate is generated. After a 72 hour incubation period, cells are fixed and stained with fluorescently labeled antibodies and nuclear dye to allow visualization of nuclei, apoptotic cells and mitotic cells. Apoptotic cells are detected using an anti-active caspase-3 antibody. Mitotic cells are detected using an anti phospho-histone-3 antibody. Compounds are serially diluted 3.16-fold and assayed over 10 concentrations in a final assay concentration of 0.1% DMSO from the highest test concentration of 10 μM. Automated fluorescence microscopy was carried out using a Molecular Devices ImageXpress Micro XL high-content imager, and images are collected with a 4× objective.
# (§2) Sixteen-bit TIFF images are acquired and analyzed with MetaXpress 5.1.0.41 software. Cell proliferation is measured by the signal intensity of the incorporated nuclear dye. The cell proliferation assay output is referred to as the relative cell count. To determine the cell proliferation end point, the cell proliferation data output is transformed to percentage of control (POC) using the following formula: POC=relative cell count(compound wells)/relative cell count(vehicle wells)×100
# (§3) GI50 is the concentration needed to reduce the observed growth by half. This is the concentration that inhibits the growth to the level midway between growth in untreated cells and the number of cells seeded in the well (Time zero value). The IC50 values are calculated using nonlinear regression to fit data to a sigmoidal 4 point, 4 parameter One-Site dose response model, where: y(fit)=A+[(B−A)/(1+((C/x)^D))].
# as §1, with “In another experiment, cells were grown” for “Cells are grown”, “Cells were” for “Cells are”, “Compounds were” for “Compounds are”, “plate was” for “plate is”, “cells were” for “cells are”, “images were” for “images are”
# as §2, with “images were” for “images are”, “proliferation was” for “proliferation is”, “output was” for “output is”
# as §3, with “GI50 refers to” for “GI50 is”, “This corresponds to” for “This is”, “values were” for “values are”
# [1] = BV-173, BV173 (Hematopoietic and lymphoid, Leukemia)
# [2] = BXPC-3, 72 h, BXPC3, Pancreas, 72 h
# [3] = BeWo, 72 h, Female GU, Placenta
# [4] = C-4-II, C4II (Female GU, Cervix)
# [5] = C-33-A, C33A (Female GU, Cervix)
# [6] = CA46, CA46 (Hematopoietic and lymphoid, Lymphoma)
# [7] = CAL-62, 72 h, CAL62, Endocrine, Thyroid, 72 h
# [8] = CAPAN-1, 72 h, CAPAN1, Pancreas, 72 h
# [9] = CCF-STTG1, CCFSTTG1 (CNS, Glioma)
# [10] = CCRF-CEM, CCRFCEM (Hematopoietic and lymphoid, Leukemia)
# [11] = CFPAC-1, 72 h, CFPAC1, Pancreas, 72 h
# [12] = CGTH-W-1, 72 h, CGTHW1, Endocrine, Thyroid, 72 h
# [13] = CHP-212, 72 h, CHP212, CNS, Neuroblastoma, 72 h
# [14] = COLO-320-HSR, COLO320HSR (Colon)
# [15] = COLO-829, COLO829 (Skin, Melanoma)
# [16] = COR-L23, 72 h, CORL23, Lung, NSCLC, 72 h
# [17] = COR-L105, 72 h, CORL105, Lung, NSCLC, 72 h
# [18] = CRO-AP2, CROAP2 (Hematopoietic and lymphoid, Lymphoma)
# [19] = Ca-Ski, 72 h, CASKI, Female GU, Ovary
# [20] = Calu-1, 72 h, CALU1, Lung, NSCLC, 72 h
# [21] = Calu-6, 72 h, CALU6, Lung, NSCLC, 72 h
# [22] = Caov-3, 72 h, CAOV3, Female GU, Ovary, 72 h
# [23] = Capan-2, 72 h, CAPAN2, Pancreas, 72 h
# [24] = ChaGo-K-1, 72 h, CHAGOK1, Lung, NSCLC, 72 h
# [25] = D283 Med, D283MED (CNS, Medulloblastoma)
# [26] = DBTRG-05MG, DBTRG05MG (CNS, Glioma)
# [27] = DMS-53, 72 h, DMS53, Lung, SCLC, 72 h
# [28] = DMS-114, 72 h, DMS114, Lung, SCLC, 72 h
# [29] = DMS-273, 72 h, DMS273, Lung, SCLC, 72 h
# [30] = DOHH-2, DOHH2 (Hematopoietic and lymphoid, Lymphoma)
# [31] = DU-145, 72 h, DU145, Prostate, 72 h
# [32] = Daoy, DAOY (CNS, Medulloblastoma)
# [33] = Daudi, DAUDI (Hematopoietic and lymphoid, Lymphoma)
# [34] = Detroit 562, DETROIT562 (Head and Neck)
# [35] = DoTc2-4510, DOTC24510 (Female GU, Cervix)
# [36] = GA-10, GA10 (Hematopoietic and lymphoid, Lymphoma)
# [37] = HEC-1-A, 72 h, HEC1A, Female GU, Uterus
# [38] = HEL 92.1.7, HEL9217 (Hematopoietic and lymphoid, Leukemia)
# [39] = HPAF-II, 72 h, HPAFII, Pancreas
# [40] = HT-1080, 72 h, HT1080, Soft Tissue, Sarcoma, 72 h
# [41] = Hs 294T, HS294T (Skin, Melanoma)
# [42] = Hs 695T, HS695T (Skin, Melanoma)
# [43] = HuP-T4, 72 h, HUPT4, Pancreas, 72 h
# [44] = J-RT3-T3-5, JRT3T35 (Hematopoietic and lymphoid, Leukemia)
# [45] = JEG-3, 72 h, JEG3, Female GU, Placenta, 72 h
structure (smiles),measurement,setting,value
"C[C@]1(C(N)=O)CC[C@@H](n2c(Nc3c(Cl)cc(Cl)cc3Cl)nc3cnc(N[C@@H]4CCOC[C@H]4F)nc32)CC1 [Compound 1, cis-4-[2-{[(3S,4R)-3-fluorooxan-4-yl]amino}-8-(2,4,6-trichloroanilino)-9H-purin-9-yl]-1-methylcyclohexane-1-carboxamide]",GI50,"BT-474, BT474 (Breast)",> 10000 nM
same,pIC50,"BT-474, BT474 (Breast)",< 5.00
same,GI50,"BT-549, BT549 (Breast)",> 10000 nM
same,pIC50,"BT-549, BT549 (Breast)",< 5.00
same,GI50,[1],1100 nM
same,pIC50,[1],< 5.00
same,GI50,[2],36.9 nM
same,pIC50,[2],7.34
same,GI50,[3],5160 nM
same,pIC50,[3],5.24
same,GI50,[4],> 10000 nM
same,pIC50,[4],< 5.00
same,GI50,[5],191 nM
same,pIC50,[5],6.39
same,GI50,[6],14.6 nM
same,pIC50,[6],7.67
same,GI50,"CAKI-1, CAKI1 (Kidney)",91.4 nM
same,pIC50,"CAKI-1, CAKI1 (Kidney)",6.82
same,GI50,"CAKI-2, CAKI2 (Kidney)",139 nM
same,pIC50,"CAKI-2, CAKI2 (Kidney)",6.71
same,GI50,"CAL-27, CAL27 (Head and Neck)",59.2 nM
same,pIC50,"CAL-27, CAL27 (Head and Neck)",7.18
same,GI50,[7],83.6 nM
same,pIC50,[7],7.03
same,GI50,"CAMA-1, CAMA1 (Breast)",298 nM
same,pIC50,"CAMA-1, CAMA1 (Breast)",5.65
same,GI50,[8],105 nM
same,pIC50,[8],< 5.00
same,GI50,[9],> 10000 nM
same,pIC50,[9],< 5.00
same,GI50,[10],5030 nM
same,pIC50,[10],5.22
same,GI50,[11],> 10000 nM
same,pIC50,[11],< 5.00
same,GI50,[12],54.7 nM
same,pIC50,[12],7.22
same,GI50,"CHL-1, CHL1 (Skin, Melanoma)",103 nM
same,pIC50,"CHL-1, CHL1 (Skin, Melanoma)",6.93
same,GI50,[13],6.6 nM
same,pIC50,[13],7.78
same,GI50,"COLO 201, COLO201 (Colon)",12.8 nM
same,pIC50,"COLO 201, COLO201 (Colon)",7.76
same,GI50,"COLO 205, COLO205 (Colon)",9.5 nM
same,pIC50,"COLO 205, COLO205 (Colon)",7.93
same,GI50,"COLO 320DM, COLO320DM (Colon)",9110 nM
same,pIC50,"COLO 320DM, COLO320DM (Colon)",< 5.00
same,GI50,[14],4190 nM
same,pIC50,[14],5.35
same,GI50,[15],12.1 nM
same,pIC50,[15],7.46
same,GI50,[16],23.8 nM
same,pIC50,[16],7.55
same,GI50,[17],16.5 nM
same,pIC50,[17],7.38
same,GI50,[18],996 nM
same,pIC50,[18],5.59
same,GI50,[19],6760 nM
same,pIC50,[19],< 5.00
same,GI50,[20],96.7 nM
same,pIC50,[20],6.83
same,GI50,[21],46.3 nM
same,pIC50,[21],7.08
same,GI50,[22],429 nM
same,pIC50,[22],< 5.00
same,GI50,[23],136 nM
same,pIC50,[23],6.54
same,GI50,[24],> 10000 nM
same,pIC50,[24],< 5.00
same,GI50,[25],2560 nM
same,pIC50,[25],5.12
same,GI50,[26],43.2 nM
same,pIC50,[26],7.01
same,GI50,"DLD-1, DLD1 (Colon)",162 nM
same,pIC50,"DLD-1, DLD1 (Colon)",6.71
same,GI50,[27],998 nM
same,pIC50,[27],< 5.00
same,GI50,[28],68.8 nM
same,pIC50,[28],6.22
same,GI50,[29],5960 nM
same,pIC50,[29],5.17
same,GI50,[30],5540 nM
same,pIC50,[30],5.24
same,GI50,[31],73.8 nM
same,pIC50,[31],7.02
same,GI50,[32],749 nM
same,pIC50,[32],5.96
same,GI50,[33],17.7 nM
same,pIC50,[33],< 5.00
same,GI50,[34],347 nM
same,pIC50,[34],< 5.00
same,GI50,[35],40 nM
same,pIC50,[35],6.88
same,GI50,"EFM-19, EFM19 (Breast)",4200 nM
same,pIC50,"EFM-19, EFM19 (Breast)",< 5.00
same,GI50,"FaDu, FADU (Head and Neck)",435 nM
same,pIC50,"FaDu, FADU (Head and Neck)",6.10
same,GI50,"G-361, G361 (Skin, Melanoma)",102 nM
same,pIC50,"G-361, G361 (Skin, Melanoma)",6.82
same,GI50,"G-401, G401 (Kidney)",77.4 nM
same,pIC50,"G-401, G401 (Kidney)",7.07
same,GI50,"G-402, G402 (Kidney)",50.4 nM
same,pIC50,"G-402, G402 (Kidney)",7.03
same,GI50,[36],46.8 nM
same,pIC50,[36],7.25
same,GI50,"HCT-15, HCT15 (Colon)",1970 nM
same,pIC50,"HCT-15, HCT15 (Colon)",5.65
same,GI50,"HCT-116, HCT116 (Colon)",19.4 nM
same,pIC50,"HCT-116, HCT116 (Colon)",7.69
same,GI50,[37],1800 nM
same,pIC50,[37],5.55
same,GI50,[38],4620 nM
same,pIC50,[38],5.08
same,GI50,"HMCB, HMCB (Skin, Melanoma)",72.4 nM
same,pIC50,"HMCB, HMCB (Skin, Melanoma)",6.95
same,GI50,[39],13 nM
same,pIC50,[39],7.76
same,GI50,"HRT-18, HRT18 (Colon)",77.5 nM
same,pIC50,"HRT-18, HRT18 (Colon)",7.09
same,GI50,"HT1197, HT1197 (Bladder)",444 nM
same,pIC50,"HT1197, HT1197 (Bladder)",< 5.00
same,GI50,"HT-29, HT29 (Colon)",12.9 nM
same,pIC50,"HT-29, HT29 (Colon)",7.78
same,GI50,[40],64.8 nM
same,pIC50,[40],7.14
same,GI50,"HT-1376, HT1376 (Bladder)",792 nM
same,pIC50,"HT-1376, HT1376 (Bladder)",5.46
same,GI50,"HeLa, HELA (Female GU, Cervix)",6750 nM
same,pIC50,"HeLa, HELA (Female GU, Cervix)",5.06
same,GI50,"HepG2, HEPG2 (Liver)",22.4 nM
same,pIC50,"HepG2, HEPG2 (Liver)",7.19
same,GI50,[41],50.7 nM
same,pIC50,[41],7.15
same,GI50,"Hs 683, HS683 (CNS, Glioma)",148 nM
same,pIC50,"Hs 683, HS683 (CNS, Glioma)",6.52
same,GI50,[42],36.3 nM
same,pIC50,[42],6.80
same,GI50,"Hs746T, 72 h, Stomach",39.6 nM
same,pIC50,"Hs746T, 72 h, Stomach",6.91
same,GI50,"Hs-578T, HS578T (Breast)",153 nM
same,pIC50,"Hs-578T, HS578T (Breast)",6.08
same,GI50,"HuCCT-1, HUCCT1 (Liver)",53.7 nM
same,pIC50,"HuCCT-1, HUCCT1 (Liver)",7.20
same,GI50,[43],43.4 nM
same,pIC50,[43],7.30
same,GI50,"HuTu80, HUTU80 (Duodenum)",57 nM
same,pIC50,"HuTu80, HUTU80 (Duodenum)",7.16
same,GI50,[44],3580 nM
same,pIC50,[44],5.32
same,GI50,[45],6340 nM
same,pIC50,[45],5.11

# Source: patent publication US10513519B2, “Solid forms of (1S,4S)-4-(2-(((3S,4R)-3-fluorotetrahydro-2H-pyran-4-yl)amino)-8-((2,4,6-trichlorophenyl)amino)-9H-purin-9-yl)-1-methylcyclohexane-1-carboxamide and methods of their use” (Signal Pharmaceuticals, LLC, priority 2016, dated 2019)
